pEC50: −log10 of the molar value. Where two headings read alike, the source gives them in different places. Where only a bound is given, the exact number is not on record here.

Usually pEC50 stands for −log10 of the EC50, conventionally taken in molar units.

Data set [1] concerns the target T1, ΔK280 tauRD protein (Homo sapiens, UniProt P10636, DEL597-597).
T1 construct: E. coli-derived ΔK280 tauRD protein; made in house; host or cells: E. coli
The data set is described as follows: Thioflavin T assay of ΔK280 tauRD aggregation. The format is biochemical. The method, then:
The potential of Congo red and coumarin-chalcone derivatives in inhibiting tau misfolding was assessed using the E. coli-derived ΔK280 tauRD protein [21]. In brief, ΔK280 tauRD protein (20 μM) was incubated with the tested compound (1−10 μM) in buffer (150 mM NaCl, 20 mM Tris-HCl (pH 8.0)) at 37°C for 48 h to form aggregates. Thioflavin T (5 μM) was then added, and the mixture was incubated at room temperature for 25 min. The fluorescence intensity of the samples was measured, and the EC50 was computed as described.

The subject of data set [2] is ∆K280 tauRD-DsRed SH-SY5Y cells. The data set is described as follows: High content analysis of neurite outgrowth in ΔK280 tauRD-DsRed cells. The format is cell-based, Human. The settings on record: 10 μM. The method, then:
On day 1, Aβ-GFP or ∆K280 tauRD-DsRed SH-SY5Y cells were plated into 24-well plates (6 × 10^4/well) followed by addition of retinoic acid. On day 2, cells were treated with coumarin-chalcone derivatives (5 or 10 μM) and with doxycycline (5 or 2 μg/ml) to induce the expression of Aβ-GFP or ∆K280 tauRD-DsRed. On day 8, 4% paraformaldehyde, 0.1% Triton X-100, and 3% BSA were used to fix, permeabilize, and block cells, respectively. Subsequently, the cells were stained with TUBB3 (neuronal class III β-tubulin) primary antibody (1 : 1000; Covance, Princeton, NJ, USA) at 4°C overnight. Goat anti-rabbit Alexa Fluor 555 secondary antibody (1 : 1000; Thermo Fisher Scientific) was then added, followed by a 3 h incubation at room temperature. Following staining nuclei with 4′,-6-diamidino-2-phenylindole (DAPI) (0.1 μg/ml; Sigma-Aldrich), the neurons were imaged by using the HCA system and analysed by using the Neurite Outgrowth Application Module (MetaXpress; Molecular Devices).
To monitor the cAMP-mediated signal transduction pathway, CRE-GFP 293 cells in 6-well plates (1 × 10^6/well) were pretreated with kinase inhibitor H-89 (LC Laboratories, Woburn, MA, USA), KN-62 (Cayman Chemical, Ann Arbor, MI, USA), U0126 (LC Laboratories), or wortmannin (LC Laboratories) (10 μM) for 4 h before forskolin or LM-021 (10 μM) addition for 5 h. GFP fluorescence/protein and total/phosphorylated PKA, CaMKII, ERK, PI3K, and CREB levels were examined. In addition, Aβ-GFP or ∆K280 tauRD-DsRed SH-SY5Y cells were treated with retinoic acid (10 μM) on day 1, followed by the addition of LM-021 (5 or 10 μM) and doxycycline (5 or 2 μg/ml) on day 2, as described. Kinase inhibitors (10 μM) were added on day 6. On day 8, the cells were collected for protein expression analysis of BDNF, BCL2 (BCL2 apoptosis regulator), and BAX (BCL2 associated X, apoptosis regulator), and total/phosphorylated PKA, CaMKII, ERK, PI3K, and CREB. Also, cells were stained with DAPI and assessed for neurite outgrowth as described above.

Data set [3] has the same test system. The data set is described as follows: Real-time PCR of tauRD-DsRed RNA. The format is cell-based, Human. The settings on record: 10 μM. The method, then: (§1) To measure the Aβ-GFP/tauRD-DsRed RNA expression on day 8, total RNA was extracted from collected cells and reverse-transcribed to cDNA (SuperScript III reverse transcriptase; Invitrogen, Waltham, MA, USA). Real-time quantitative PCR was performed using 100 ng of cDNA and the gene-specific TaqMan fluorogenic probe PN4331348 (EGFP) or customized Assays-by-Design probe for DsRed and 4326321E (HPRT1) (StepOnePlus Real-time PCR system, Applied Biosystems, Foster City, CA, USA). The RNA expression level was calculated using the formula 2^ΔCt, ΔCT = CT (control) − CT (target), in which CT indicates the cycle threshold.
(In general: Real-time PCR tracks product formation cycle by cycle.)

For data set [4] the test system is unchanged. Kind of data set: High content analysis of ΔK280 tauRD-DsRed fluorescence. Format: cell-based, Human. The settings on record: for pEC50: Homo sapiens, read-out: Extrapolated EC50 in inhibiting ∆K280 tauRD aggregation (DsRed fluorescence). The method, then:
Human 293-derived Flp-In-293 cells (Invitrogen, Madison, WI, USA) were cultivated in Dulbecco's modified Eagle's medium (DMEM) containing 10% foetal bovine serum (FBS) (Thermo Fisher Scientific). Human neuroblastoma SH-SY5Y-derived Aβ-GFP [23] and ∆K280 tauRD-DsRed cells were kept in DMEM/nutrient mixture F12 (DMEM/F12) containing 10% FBS, 5 μg/ml blasticidin, and 100 μg/ml hygromycin (InvivoGen, San Diego, CA, USA). Doxycycline (Sigma-Aldrich) was applied to induce the expression of Aβ-GFP (5 μg/ml doxycycline) or ∆K280 tauRD-DsRed (2 μg/ml doxycycline).
(§2) On day 1, Aβ-GFP or ∆K280 tauRD-DsRed SH-SY5Y cells were seeded into 96-well plates (2.5 × 10^4/well) and treated with retinoic acid (10 μM; Sigma-Aldrich) to prompt neuronal differentiation. […] On day 8, cells were stained with Hoechst 33342 (0.1 μg/ml; Sigma-Aldrich) for 30 min, and cell images were automatically captured at excitation/emission wavelengths of 482/[…] (GFP fluorescence) or 543/593 nm (DsRed fluorescence) using a high content analysis (HCA) system (Micro Confocal High-Content Imaging System). Image Acquisition and Analysis Software (MetaXpress) (Molecular Devices, Sunnyvale, CA, USA) was used to analyse the images. CellROX Orange (5 μM; Molecular Probes, Eugene, OR, USA) (for Aβ-GFP cells) or dichloro-dihydro-fluorescein diacetate (DCFH-DA, 10 μM; Invitrogen) (for ∆K280 tauRD-DsRed cells) was added to the cells and incubated at 37°C for 30 min. The HCA system was used to measure intracellular ROS at 531/593 nm (CellROX Orange fluorescence) or 482/536 nm (DCFH-DA fluorescence) of excitation/emission wavelengths.

For data set [5], the system named is caspase 1. Kind of data set: Caspase 1 activity in ΔK280 tauRD-DsRed cells. The format is cell-based, Human. The settings on record: 10 μM, ∆K280 tauRD-DsRed cells. The method, then:
(§3) Aβ-GFP or ∆K280 tauRD-DsRed SH-SY5Y cells were seeded into 6-well plates (5 × 10^5/well) and treated with retinoic acid, coumarin-chalcone derivatives, and doxycycline as previously described. On day 8, cells were collected and lysates were prepared with six freeze/thaw cycles. The supernatant was collected by centrifugation, followed by measurement of the caspase 1 activity in 50 μg aliquots of cell extract using the ICE fluorometric assay kit (BioVision, Milpitas, CA, USA). Following incubation of the mixture at 37°C for 2 h, fluorescence was measured with excitation/emission wavelengths at 400/505 nm (FLx800 fluorescence microplate reader). In addition, the collected cells were lysed by sonication. Acetylcholinesterase (AChE) activity in the supernatant was determined in 10 μg aliquots of cell extracts using the AChE activity assay kit (Sigma-Aldrich) according to the manufacture's protocol. Finally, the absorbance at 412 nm was measured using a Multiskan GO spectrophotometer (Thermo Fisher Scientific).

The test system of data set [6] is Aβ-GFP SH-SY5Y cells. Kind of data set: High content analysis of Aβ-GFP fluorescence. Format: cell-based, Human. The following applies: for pEC50: Homo sapiens, read-out: EC50 in Aβ aggregation inhibition (GFP fluorescence); for Concentration significantly augmenting green fluorescence intensity (Aβ-GFP): day 8. The method, then: Human neuroblastoma SH-SY5Y-derived Aβ-GFP [23] and ∆K280 tauRD-DsRed cells were kept in DMEM/nutrient mixture F12 (DMEM/F12) containing 10% FBS, 5 μg/ml blasticidin, and 100 μg/ml hygromycin (InvivoGen, San Diego, CA, USA). Doxycycline (Sigma-Aldrich) was applied to induce the expression of Aβ-GFP (5 μg/ml doxycycline) or ∆K280 tauRD-DsRed (2 μg/ml doxycycline).
On day 1, Aβ-GFP or ∆K280 tauRD-DsRed SH-SY5Y cells were seeded into 96-well plates (2.5 × 10^4/well) and treated with retinoic acid (10 μM; Sigma-Aldrich) to prompt neuronal differentiation. […] Image Acquisition and Analysis Software (MetaXpress) (Molecular Devices, Sunnyvale, CA, USA) was used to analyse the images. CellROX Orange (5 μM; Molecular Probes, Eugene, OR, USA) (for Aβ-GFP cells) or dichloro-dihydro-fluorescein diacetate (DCFH-DA, 10 μM; Invitrogen) (for ∆K280 tauRD-DsRed cells) was added to the cells and incubated at 37°C for 30 min.

Data set [7] relates to Aβ-GFP SH-SY5Y cells. The data set is described as follows: Real-time PCR of Aβ-GFP RNA. Format: cell-based, Human. The following applies: 5 μM. The method, then:
as §1

In data set [8] the test system is caspase 1. Kind of data set: Caspase 1 activity in Aβ-GFP cells. The following applies: 5 μM, vs untreated cells. Format: cell-based, Human. The method, then: as §3
A short description of data set [9]: DPPH radical-scavenging assay. The following applies: compounds 10–160 μM, 100 μM DPPH, 30 min, n = 3. The method, then: Stable free radical 1,1-diphenyl-2-picrylhydrazyl (DPPH) (Sigma-Aldrich) was applied to test the potential radical-scavenging activity of the coumarin-chalcone derivatives. In brief, the compounds (10–160 μM) were added to an ethanol solution containing 100 μM DPPH. The mixture was vortexed for 15 sec, left to stand for 30 min at room temperature, and scavenging capacity was measured at a wavelength of 517 nm using a Multiskan GO microplate spectrophotometer (Thermo Fisher Scientific, Waltham, MA, USA).
A general note: Loss of DPPH colour is used to gauge radical scavenging.

The subject of data set [10] is Aβ-GFP SH-SY5Y cells. Kind of data set: ROS assay (CellROX Orange) in Aβ-GFP cells. The following applies: tested 1.2–5 μM. Format: cell-based, Human. The method, then:
as §2

A short description of data set [11]: physchem. The format is physicochemical. The following applies: aqueous buffer. The method, then:
The coumarin-chalcone derivatives (E)-4-hydroxy-3-(3-(p-tolyl)acryloyl)-2H-chromen-2-one (LM-016), (E)-3-(3-(4-(dimethylamino)phenyl)acryloyl)-4-hydroxy-2H-chromen-2-one (LM-021), and (E)-3-(3-(furan-2-yl)acryloyl)-4-hydroxy-2H-chromen-2-one (LM-022) were synthesized in our laboratory as previously described and examined by using NMR spectroscopy. The LM-016, LM-021, and LM-022 stayed soluble in cell culture medium at concentrations up to 100 μM.

Data set [12] has as its target T2, Aβ42 peptide (Homo sapiens, UniProt P05067).
T2 construct: containing Aβ42 peptide (5 μM); purchased AnaSpec; host or cells: synthetic
Kind of data set: Thioflavin T assay of Aβ aggregation. The following applies: Aβ42 5 μM, compound 5–20 μM, 37°C 48 h; read-out: Aβ aggregation inhibition EC50 (Thioflavin T). The format is biochemical. The method, then:
In brief, the tested compound (5–20 μM) was added to a buffer solution (150 mM NaCl, 20 mM Tris-HCl (pH 8.0)) containing Aβ42 peptide (5 μM) and incubated at 37°C for 48 h. Thioflavin T (10 μM) (Sigma-Aldrich) then was added, and the mixture was incubated for 5 min at room temperature. Subsequently, the fluorescence intensity was quantified at 420/485 nm of excitation/emission wavelengths using a FLx800 microplate reader (Bio-Tek, Winooski, VT, USA). EC50 was computed as described.

Data set [13] concerns Acetylcholinesterase (AChE). The data set is described as follows: AChE activity in Aβ-GFP cells. The format is cell-based. The following applies: 5 μM, vs untreated cells. The method, then: as §3
Where [14] appears, read: ∆K280 tauRD-DsRed SH-SY5Y cells, tested 2.5–10 μM.

T2 sequence (P05067 672-713 limits assumed): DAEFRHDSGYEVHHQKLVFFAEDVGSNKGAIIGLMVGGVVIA
T1 sequence (P10636 with tags, fused parts or gaps DEL597-597): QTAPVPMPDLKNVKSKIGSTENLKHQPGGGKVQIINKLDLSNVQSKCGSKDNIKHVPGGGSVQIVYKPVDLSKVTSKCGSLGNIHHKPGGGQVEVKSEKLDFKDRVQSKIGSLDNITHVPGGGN

As to `Nc1c(/N=N/c2ccc(-c3ccc(/N=N/c4cc(S(=O)(=O)O)c5ccccc5c4N)cc3)cc2)cc(S(=O)(=O)O)c2ccccc12` [Congo red, reference compound], the results for the pEC50 in data set [1] and in [4] (setting [14]) were 5.00 and 4.24, respectively. For the same compound, in data set [2], the “Neurite length and branches” value is “successfully ameliorated”. For the same compound, the “∆K280 tauRD-DsRed RNA level” value in data set [3] is “did not significantly alter”. The “Concentration significantly elevating DsRed fluorescence intensity” value in [4] (tested 2.5–10 μM, day 8) came to 10 µM. In addition, the “Caspase 1 activity” value in data set [5] was “lowered caspase 1 activity”.

As for `Cc1ccc(/C=C/C(=O)c2c(O)c3ccccc3oc2=O)cc1` [LM-016, (E)-4-hydroxy-3-(3-(p-tolyl)acryloyl)-2H-chromen-2-one], the pEC50 is 5.15 in [6] (SH-SY5Y), 4.15 in data set [4] (SH-SY5Y), 3.90 in [9] and 4.82 in data set [12]. In addition, the “Concentration significantly augmenting green fluorescence intensity (Aβ-GFP)” value in data set [6] (tested 1.2–5 μM) lay in the range of 2.5 to 5 µM. Further, in [7], the “Aβ-GFP RNA levels” value is on record as “did not significantly modify”. Further, the “Caspase 1 activity” value in data set [8] is “reduced”. Besides, the “Concentration effectively decreasing ROS levels caused by Aβ overexpression” value in data set [10] fell in the range of 2.5 to 5 µM. Moreover, in data set [11] (cell culture medium, read-out: Concentration up to which the compound stayed soluble), the solubility was no less than 100 µM. In data set [13], the AChE activity result is “reduced”.

`O=C(/C=C/c1ccco1)c1c(O)c2ccccc2oc1=O` [LM-022, (E)-3-(3-(furan-2-yl)acryloyl)-4-hydroxy-2H-chromen-2-one]: the pEC50 was 5.09 in [6] (Aβ-GFP SH-SY5Y cells, tested 1.2–5 μM); 4.14 in [4] (setting [14]); 3.84 in data set [9]; 4.74 in [12]. For the same compound, the “Concentration significantly augmenting green fluorescence intensity (Aβ-GFP)” value in [6] (tested 1.2–5 μM) was in the range of 2.5 to 5 µM. The “Aβ-GFP RNA levels” value in data set [7] was “did not significantly modify”. Moreover, the “Concentration effectively decreasing ROS levels caused by Aβ overexpression” value in data set [10] fell in the range of 2.5 to 5 µM. Moreover, the solubility in [11] was no less than 100 µM.
